# Reference: ChEMBL document CHEMBL1944578, “Synthesis and anticonvulsant activity of novel 2,6-diketopiperazine derivatives. Part 2: Perhydropyrido[1,2-a]pyrazines” (Eur J Med Chem, 2012)
# The source made the active and inactive calls. The rule behind the calls is not given here.
# Assays:
# Mus musculus [1] = test: Anticonvulsant activity in Carworth farms No.1 albino mouse assessed as protection against maximum electroshock at 30 mg/kg, ip measured after 0.5 hrs; assay type: functional, organism-based; set-up: dose 30 mg/kg
# Mus musculus [2] = test: Anticonvulsant activity in Carworth farms No.1 albino mouse assessed as protection against maximum electroshock at 100 mg/kg, ip measured after 0.5 hrs; assay type: functional, organism-based; set-up: dose 100 mg/kg
# Mus musculus [3] = test: Anticonvulsant activity in Carworth farms No.1 albino mouse assessed as protection against maximum electroshock at 300 mg/kg, ip measured after 0.5 hrs; assay type: functional, organism-based; set-up: dose 300 mg/kg
# Mus musculus [4] = test: Anticonvulsant activity in Carworth farms No.1 albino mouse assessed as protection against maximum electroshock at 30 mg/kg, ip measured after 4 hrs; assay type: functional, organism-based; set-up: dose 30 mg/kg
# Mus musculus [5] = test: Anticonvulsant activity in Carworth farms No.1 albino mouse assessed as protection against maximum electroshock at 100 mg/kg, ip measured after 4 hrs; assay type: functional, organism-based; set-up: dose 100 mg/kg
# Mus musculus [6] = test: Anticonvulsant activity in Carworth farms No.1 albino mouse assessed as protection against maximum electroshock at 300 mg/kg, ip measured after 4 hrs; assay type: functional, organism-based; set-up: dose 300 mg/kg
# Mus musculus [7] = test: Anticonvulsant activity in Carworth farms No.1 albino mouse assessed as protection against subcutaneous metrazole-induced seizures at 30 mg/kg, ip measured after 0.5 hrs; assay type: functional, organism-based; set-up: dose 30 mg/kg
# Mus musculus [8] = test: Anticonvulsant activity in Carworth farms No.1 albino mouse assessed as protection against subcutaneous metrazole-induced seizures at 100 mg/kg, ip measured after 0.5 hrs; assay type: functional, organism-based; set-up: dose 100 mg/kg
# Mus musculus [9] = test: Anticonvulsant activity in Carworth farms No.1 albino mouse assessed as protection against subcutaneous metrazole-induced seizures at 300 mg/kg, ip measured after 0.5 hrs; assay type: functional, organism-based; set-up: dose 300 mg/kg
# Mus musculus [10] = test: Anticonvulsant activity in Carworth farms No.1 albino mouse assessed as protection against subcutaneous metrazole-induced seizures at 30 mg/kg, ip measured after 4 hrs; assay type: functional, organism-based; set-up: dose 30 mg/kg
# Mus musculus [11] = test: Anticonvulsant activity in Carworth farms No.1 albino mouse assessed as protection against subcutaneous metrazole-induced seizures at 100 mg/kg, ip measured after 4 hrs; assay type: functional, organism-based; set-up: dose 100 mg/kg
# Mus musculus [12] = test: Anticonvulsant activity in Carworth farms No.1 albino mouse assessed as protection against subcutaneous metrazole-induced seizures at 300 mg/kg, ip measured after 4 hrs; assay type: functional, organism-based; set-up: dose 300 mg/kg
# Mus musculus [13] = test: Neurotoxicity in Carworth farms No.1 albino mouse assessed as neurological impairment at 30 mg/kg, ip measured after 0.5 hrs; assay type: toxicity, organism-based; set-up: dose 30 mg/kg, route intraperitoneal; settings: in vivo
# Mus musculus [14] = test: Neurotoxicity in Carworth farms No.1 albino mouse assessed as neurological impairment at 100 mg/kg, ip measured after 0.5 hrs; assay type: toxicity, organism-based; set-up: dose 100 mg/kg, route intraperitoneal; settings: in vivo
# Mus musculus [15] = test: Neurotoxicity in Carworth farms No.1 albino mouse assessed as neurological impairment at 300 mg/kg, ip measured after 0.5 hrs; assay type: toxicity, organism-based; set-up: dose 300 mg/kg, route intraperitoneal; settings: in vivo
# Mus musculus [16] = test: Neurotoxicity in Carworth farms No.1 albino mouse assessed as neurological impairment at 30 mg/kg, ip measured after 4 hrs; assay type: toxicity, organism-based; set-up: dose 30 mg/kg, route intraperitoneal; settings: in vivo
# Mus musculus [17] = test: Neurotoxicity in Carworth farms No.1 albino mouse assessed as neurological impairment at 100 mg/kg, ip measured after 4 hrs; assay type: toxicity, organism-based; set-up: dose 100 mg/kg, route intraperitoneal; settings: in vivo
# Mus musculus [18] = test: Neurotoxicity in Carworth farms No.1 albino mouse assessed as sedation at 300 mg/kg, ip measured after 4 hrs; assay type: toxicity, organism-based; set-up: dose 300 mg/kg, route intraperitoneal; settings: in vivo
# Rattus norvegicus [19] = test: Anticonvulsant activity in Sprague-Dawley rat assessed as protection against maximum electroshock at 30 mg/kg, po measured after 0.25 hrs; assay type: functional, organism-based; set-up: dose 30 mg/kg
# Rattus norvegicus [20] = test: Anticonvulsant activity in Sprague-Dawley rat assessed as protection against maximum electroshock at 30 mg/kg, po measured after 0.5 hrs; assay type: functional, organism-based; set-up: dose 30 mg/kg
# Rattus norvegicus [21] = test: Anticonvulsant activity in Sprague-Dawley rat assessed as protection against maximum electroshock at 30 mg/kg, po measured after 1 hr; assay type: functional, organism-based; set-up: dose 30 mg/kg
# Rattus norvegicus [22] = test: Anticonvulsant activity in Sprague-Dawley rat assessed as protection against maximum electroshock at 30 mg/kg, po measured after 2 hrs; assay type: functional, organism-based; set-up: dose 30 mg/kg
# Rattus norvegicus [23] = test: Anticonvulsant activity in Sprague-Dawley rat assessed as protection against maximum electroshock at 30 mg/kg, po measured after 4 hrs; assay type: functional, organism-based; set-up: dose 30 mg/kg
# Rattus norvegicus [24] = test: Neurotoxicity in Sprague-Dawley rat assessed as neurological impairment at 30 mg/kg, po measured after 0.25 hrs; assay type: toxicity, organism-based; set-up: dose 30 mg/kg, route oral; settings: in vivo
# Rattus norvegicus [25] = test: Neurotoxicity in Sprague-Dawley rat assessed as neurological impairment at 30 mg/kg, po measured after 0.5 hrs; assay type: toxicity, organism-based; set-up: dose 30 mg/kg, route oral; settings: in vivo
# Rattus norvegicus [26] = test: Neurotoxicity in Sprague-Dawley rat assessed as neurological impairment at 30 mg/kg, po measured after 1 hr; assay type: toxicity, organism-based; set-up: dose 30 mg/kg, route oral; settings: in vivo
# Rattus norvegicus [27] = test: Neurotoxicity in Sprague-Dawley rat assessed as neurological impairment at 30 mg/kg, po measured after 2 hrs; assay type: toxicity, organism-based; set-up: dose 30 mg/kg, route oral; settings: in vivo
# Rattus norvegicus [28] = test: Neurotoxicity in Sprague-Dawley rat assessed as neurological impairment at 30 mg/kg, po measured after 4 hrs; assay type: toxicity, organism-based; set-up: dose 30 mg/kg, route oral; settings: in vivo
# Mus musculus [29] = test: Anticonvulsant activity in Carworth farms No.1 albino mouse assessed as protection against 6 Hz electric current-induced seizure at 100 mg/kg, ip measured after 0.25 hrs; assay type: functional, organism-based; set-up: dose 100 mg/kg
# Mus musculus [30] = test: Anticonvulsant activity in Carworth farms No.1 albino mouse assessed as protection against 6 Hz electric current-induced seizure at 100 mg/kg, ip measured after 0.5 hrs; assay type: functional, organism-based; set-up: dose 100 mg/kg
# Mus musculus [31] = test: Anticonvulsant activity in Carworth farms No.1 albino mouse assessed as protection against 6 Hz electric current-induced seizure at 100 mg/kg, ip measured after 1 hrs; assay type: functional, organism-based; set-up: dose 100 mg/kg
# Mus musculus [32] = test: Anticonvulsant activity in Carworth farms No.1 albino mouse assessed as protection against 6 Hz electric current-induced seizure at 100 mg/kg, ip measured after 2 hrs; assay type: functional, organism-based; set-up: dose 100 mg/kg
# Mus musculus [33] = test: Anticonvulsant activity in Carworth farms No.1 albino mouse assessed as protection against 6 Hz electric current-induced seizure at 100 mg/kg, ip measured after 4 hrs; assay type: functional, organism-based; set-up: dose 100 mg/kg
# Mus musculus [34] = test: Neurotoxicity in Carworth farms No.1 albino mouse assessed as neurological impairment at 100 mg/kg, ip measured after 1 hr; assay type: toxicity, organism-based; set-up: dose 100 mg/kg, route intraperitoneal; settings: in vivo
# Mus musculus [35] = test: Neurotoxicity in Carworth farms No.1 albino mouse assessed as neurological impairment at 100 mg/kg, ip measured after 2 hr; assay type: toxicity, organism-based; set-up: dose 100 mg/kg, route intraperitoneal; settings: in vivo
# Mus musculus [36] = test: Neurotoxicity in Carworth farms No.1 albino mouse assessed as inability to grasp rotarod at 100 mg/kg, ip measured after 0.25 hr; assay type: toxicity, organism-based; set-up: dose 100 mg/kg, route intraperitoneal; settings: in vivo
# Mus musculus [37] = test: Neurotoxicity in Carworth farms No.1 albino mouse assessed as inability to grasp rotarod at 100 mg/kg, ip measured after 0.5 hr; assay type: toxicity, organism-based; set-up: dose 100 mg/kg, route intraperitoneal; settings: in vivo
# Mus musculus [38] = test: Anticonvulsant activity in ip dosed Carworth farms No.1 albino mouse assessed as protection against 6 Hz electric current-induced seizure measured after 0.25 hrs; assay type: functional
# Mus musculus [39] = species: Mus musculus; test: Anticonvulsant activity in electric shock-induced Carworth farms No.1 albino mouse assessed as time of peak effect; assay type: functional
# Mus musculus [40] = test: Neurotoxicity in Carworth farms No.1 albino mouse assessed as neurological impairment at 300 mg/kg, ip measured after 4 hrs; assay type: toxicity, organism-based; set-up: dose 300 mg/kg, route intraperitoneal; settings: in vivo
# Mus musculus [41] = test: Neurotoxicity in Carworth farms No.1 albino mouse assessed as neurological impairment at 100 mg/kg, ip measured after 0.25 hrs; assay type: toxicity, organism-based; set-up: dose 100 mg/kg, route intraperitoneal; settings: in vivo
Compound,Activity (Mus musculus [1]),Activity (Mus musculus [2]),Activity (Mus musculus [3]),Activity (Mus musculus [4]),Activity (Mus musculus [5]),Activity (Mus musculus [6]),Activity (Mus musculus [7]),Activity (Mus musculus [8]),Activity (Mus musculus [9]),Activity (Mus musculus [10]),Activity (Mus musculus [11]),Activity (Mus musculus [12]),Activity (Mus musculus [13]),Activity (Mus musculus [14]),Activity (Mus musculus [15]),Activity (Mus musculus [16]),Activity (Mus musculus [17]),Activity (Mus musculus [29]),Activity (Mus musculus [30]),Activity (Mus musculus [31]),other results
O=C1NC(=O)[C@@H]2CCCCN2[C@H]1c1ccccc1,inactive,Active,Active,inactive,inactive,Active,inactive,Active,Active,inactive,inactive,Active,Non-toxic,Toxic,Toxic,Non-toxic,Non-toxic,Active,Active,Active,Activity (Mus musculus [18]): Toxic; Activity (Rattus norvegicus [19]): inactive; Activity (Rattus norvegicus [20]): inactive; Activity (Rattus norvegicus [21]): inactive; Activity (Rattus norvegicus [22]): inactive; Activity (Rattus norvegicus [23]): Active; Activity (Rattus norvegicus [24]): Non-toxic; Activity (Rattus norvegicus [25]): Non-toxic; Activity (Rattus norvegicus [26]): Non-toxic; Activity (Rattus norvegicus [27]): Non-toxic; Activity (Rattus norvegicus [28]): Non-toxic; Activity (Mus musculus [32]): Active; Activity (Mus musculus [33]): inactive; Activity (Mus musculus [34]): Non-toxic; Activity (Mus musculus [35]): Non-toxic; Activity (Mus musculus [36]): Toxic; Activity (Mus musculus [37]): Toxic; ED50 (Mus musculus [38]): 27.2 mg/kg; Time (Mus musculus [39]): 0.25 h
CCOC(=O)CN1C(=O)[C@H](c2ccccc2)N2CCCC[C@H]2C1=O,inactive,inactive,inactive,inactive,inactive,inactive,inactive,inactive,inactive,inactive,inactive,inactive,Non-toxic,Non-toxic,Non-toxic,Non-toxic,Non-toxic,Active,Active,Active,Activity (Mus musculus [40]): Non-toxic; Activity (Mus musculus [32]): inactive; Activity (Mus musculus [33]): inactive; Activity (Mus musculus [41]): Non-toxic; Activity (Mus musculus [34]): Non-toxic; Activity (Mus musculus [35]): Non-toxic; ED50 (Mus musculus [38]): 55.3 mg/kg; Time (Mus musculus [39]): 0.25 h
